Patent US20070117743A1, “New antitumoral compounds” (priority 2003, published 2007)
Where a SMILES comes first, the peptide text is derived from it. Bridges are numbered along the chain shown (N, C = ends). [ ]: non-standard residue; d: D form. The star is where a group is joined. d(aIle) = CC[C@H](C)[C@@H](N)C(=O)O; d(aThr) = C[C@@H](O)[C@@H](N)C(=O)O; Hexanoyl(5-Me) = CC(C)CCCC(=O)*; Orn = NCCC[C@H](N)C(=O)O; Dhb = C/C=C(\N)C(=O)O

Experiments:
Format in all cases: cell-based, human
IGROV-ET = assay: SRB colorimetric assay of cell growth and viability, IGROV-ET; details: 48 hours exposure; for CC50: read-out: LC50 IGROV-ET
A-549 = assay: SRB colorimetric assay of cell growth and viability, A-549; details: 48 hours exposure; for GI50: read-out: GI50 A-549; for CC50: read-out: LC50 A-549
IGROV-1 = assay: SRB colorimetric assay of cell growth and viability, IGROV-1; details: 48 hours exposure
SK-BR-3 = assay: SRB colorimetric assay of cell growth and viability, SK-BR-3; details: 48 hours exposure
DU-145 = assay: SRB colorimetric assay of cell growth and viability, DU-145; details: 48 hours exposure
HeLa = assay: SRB colorimetric assay of cell growth and viability, HeLa; details: 48 hours exposure; for CC50: read-out: LC50 HELA
LoVo-Dox = assay: SRB colorimetric assay of cell growth and viability, LoVo-Dox; details: 48 hours exposure; for CC50: read-out: LC50 LOVO-DOX
In short: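 First, 5×10^3 cells per well attach for 18 hours in RPMI 1640 with 10% FBS at 37° C and 5% CO2. Next, samples spanning 10 to 10^−8 μg/mL are added for 48 hours. Finally, cells are fixed with TCA, stained with SRB for 10 minutes and read at 490 nm.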

LNCaP = assay: SRB colorimetric assay of cell growth and viability, LNCaP; details: 48 hours exposure; for GI50: read-out: GI50 LN-caP; for CC50: read-out: LC50 LN-caP
HT-29 = assay: SRB colorimetric assay of cell growth and viability, HT-29; details: 48 hours exposure; for GI50: read-out: GI50 HT-29; for CC50: read-out: LC50 HT-29
LoVo = assay: SRB colorimetric assay of cell growth and viability, LoVo; details: 48 hours exposure; for CC50: read-out: LC50 LOVO
SK-MEL-28 = assay: SRB colorimetric assay of cell growth and viability, SK-MEL-28; details: 48 hours exposure; for CC50: read-out: LC50 MEL-28
HeLa-APL = assay: SRB colorimetric assay of cell growth and viability, HeLa-APL; details: 48 hours exposure; for CC50: read-out: LC50 HELA-APL
K-562 = assay: SRB colorimetric assay of cell growth and viability, K-562; details: 48 hours exposure; for CC50: read-out: LC50 K-562
PANC-1 = assay: SRB colorimetric assay of cell growth and viability, PANC-1; details: 48 hours exposure; for CC50: read-out: LC50 PANC-1

C/C=C1\NC(=O)[C@H](Cc2ccccc2)NC(=O)[C@@H](C(C)C)NC(=O)[C@@H]([C@@H](C)CC)NC(=O)[C@H](NC(=O)[C@H](NC(=O)[C@H](CCCN)NC(=O)[C@H]2CCCN2C(=O)[C@H](NC(=O)[C@H](CCCN)NC(=O)[C@@H](NC(=O)[C@H](NC(=O)CCCC(C)C)C(C)C)[C@@H](C)O)C(C)C)[C@@H](C)CC)[C@@H](C)OC(=O)[C@H](C(C)C)NC1=O [Compound 49, [Orn^11]-KF] ({Hexanoyl(5-Me)}-[dV]T[Orn][dV][dP][Orn][d(aIle)][d(aThr)][d(aIle)][dV]F[Dhb]V; ester 8-C)
GI50 (IGROV-ET): 1.91 µM | TGI IGROV-ET (IGROV-ET): 5.15E−06 Molar | CC50 (IGROV-ET): 6.7 µM | TGI A-549 (A-549): 6.70E−06 Molar | GI50 (A-549): 2.61 µM | CC50 (A-549): 6.7 µM | GI50 (IGROV-1): 1.27 µM | LC50 (concentration causing 50% net cell killing) (IGROV-1): 5.97 µM | TGI IGROV (IGROV-1): 2.75E−06 Molar | GI50 (SK-BR-3): 1.94 µM | LC50 (SK-BR-3): 6.7 µM | TGI SK-BR-3 (SK-BR-3): 5.57E−06 Molar | GI50 (DU-145): 1.09 µM | LC50 (concentration causing 50% net cell kill) (DU-145): 5.75 µM | TGI DU-145 (DU-145): 2.50E−06 Molar | GI50 (HeLa): 1.1 µM | TGI HELA (HeLa): 2.20E−06 Molar | CC50 (HeLa): 4.4 µM | GI50 (LoVo-Dox): 3.22 µM | TGI LOVO-DOX (LoVo-Dox): 6.70E−06 Molar | CC50 (LoVo-Dox): 6.7 µM | TGI LN-caP (LNCaP): 6.70E−06 Molar | GI50 (LNCaP): 2.2 µM | CC50 (LNCaP): 6.7 µM | TGI HT-29 (HT-29): 3.74E−06 Molar | GI50 (HT-29): 1.58 µM | CC50 (HT-29): 6.7 µM | GI50 (LoVo): 1.47 µM | TGI LOVO (LoVo): 3.80E−06 Molar | CC50 (LoVo): 6.7 µM | GI50 (SK-MEL-28): 1.33 µM | TGI MEL-28 (SK-MEL-28): 2.50E−06 Molar | CC50 (SK-MEL-28): 4.69 µM | GI50 (HeLa-APL): 1.07 µM | TGI HELA-APL (HeLa-APL): 2.52E−06 Molar | CC50 (HeLa-APL): 5.95 µM | GI50 (K-562): 0.15 µM | TGI K-562 (K-562): 1.67E−06 Molar | CC50 (K-562): 6.7 µM | GI50 (PANC-1): 1.31 µM | TGI PANC-1 (PANC-1): 3.09E−06 Molar | CC50 (PANC-1): 6.7 µM

C/C=C1\NC(=O)[C@H](Cc2ccccc2)NC(=O)[C@@H](C(C)C)NC(=O)[C@@H]([C@@H](C)CC)NC(=O)[C@H](NC(=O)[C@H](NC(=O)[C@H](CCCN)NC(=O)[C@H]2CCCN2C(=O)[C@H](NC(=O)[C@@H](NC(=O)[C@@H](NC(=O)[C@H](NC(=O)CCCCC(C)=O)C(C)C)[C@@H](C)O)C(C)C)C(C)C)[C@@H](C)CC)[C@@H](C)OC(=O)[C@H](C(C)C)NC1=O [Compound 27, [6-OHep^14]-KF]
GI50 (IGROV-ET): 6.7 µM | TGI IGROV-ET (IGROV-ET): 6.70E−06 Molar | CC50 (IGROV-ET): 6.7 µM | TGI A-549 (A-549): 6.70E−06 Molar | GI50 (A-549): 6.7 µM | CC50 (A-549): 6.7 µM | GI50 (IGROV-1): 6.7 µM | LC50 (concentration causing 50% net cell killing) (IGROV-1): 6.7 µM | TGI IGROV (IGROV-1): 6.70E−06 Molar | GI50 (SK-BR-3): 3.16 µM | LC50 (SK-BR-3): 6.7 µM | TGI SK-BR-3 (SK-BR-3): 6.70E−06 Molar | GI50 (DU-145): 6.7 µM | LC50 (concentration causing 50% net cell kill) (DU-145): 6.7 µM | TGI DU-145 (DU-145): 6.70E−06 Molar | GI50 (HeLa): 6.7 µM | TGI HELA (HeLa): 6.70E−06 Molar | CC50 (HeLa): 6.7 µM | GI50 (LoVo-Dox): 2.14 µM | TGI LOVO-DOX (LoVo-Dox): 6.70E−06 Molar | CC50 (LoVo-Dox): 6.7 µM | TGI LN-caP (LNCaP): 6.70E−06 Molar | GI50 (LNCaP): 6.7 µM | CC50 (LNCaP): 6.7 µM | TGI HT-29 (HT-29): 6.70E−06 Molar | GI50 (HT-29): 6.7 µM | CC50 (HT-29): 6.7 µM | GI50 (LoVo): 3.5 µM | TGI LOVO (LoVo): 6.70E−06 Molar | CC50 (LoVo): 6.7 µM | GI50 (SK-MEL-28): 6.7 µM | TGI MEL-28 (SK-MEL-28): 6.70E−06 Molar | CC50 (SK-MEL-28): 6.7 µM | GI50 (HeLa-APL): 6.7 µM | TGI HELA-APL (HeLa-APL): 6.70E−06 Molar | CC50 (HeLa-APL): 6.7 µM | GI50 (K-562): 6.7 µM | TGI K-562 (K-562): 6.70E−06 Molar | CC50 (K-562): 6.7 µM | GI50 (PANC-1): 6.7 µM | TGI PANC-1 (PANC-1): 6.70E−06 Molar | CC50 (PANC-1): 6.7 µM
